Here are results for three compounds from patent US11632972B2, “S-nitrosothiol compounds and their combinations with nitrosamine blocking agents for safe food preservation” (YISSUM RESEARCH DEVELOPMENT COMPANY OF THE HEBREW …, priority 2017, dated 2023).

Series [1] in a line: Formation of N-nitroso-N-methylaniline from N-methylaniline with nitrosilating agent (2.5 mM) in citrate buffer at 37° C. To be noted: 2.5 mM agent, 2.5 mM N-methylaniline, pH 6.2. On the procedure:
The HPLC separation was performed on a Merck/Hitachi HPLC system consisting of a LaChrom L 7100 pump and a LaChrom DAD L 7450 detector. The system was operated with a data processor working with a LaChrom interface D 7000 and the EZChrom Elite 3.3.1 software. The mixture was separated on a Kinetex EVO C18 column (250×4.6 mm, 5 μm) using a gradient elution system, solvent A was 5% acetonitrile in water (v/v) and B was acetonitrile. Gradient conditions were initial=0% B, 25 min=70% B and 30 min=100% B. The flow rate was constant at 1.0 mL min^−1. The injection loop volume was 20 μL, absorbance was monitored at 272 nm.
The experiment of Example 1 was repeated with a tenfold increase of concentration of the reactants. That is, reaction mixtures were prepared by mixing in citrate buffer, at pH=3.0 and at pH=6.2, N-methylaniline (2.5 mM) and NaCl (2.5 mM) together with an equimolar amount of the tested nitrosilating agent, used either alone or in combination with ascorbic acid, as set out below: […]

Series [2] in a line: Effect on the color of the meat (Hunter L*, a*, b*, colorimeter). Also on record: species or system beef. To be noted: aerobic conditions, period of 24 h. On the procedure:
Nitrite is known to be responsible for the characteristic pink color associated with cured meat products and flavor stabilization. The color development and color stability of ground beef treated S-nitroso-cysteine and S-nitroso-N-acetylcysteine after heating to 72° C. was compared to the color of ground beef treated with nitrite. A portable colorimeter (X-rite) was used to measure Hunter color lightness, redness and yellowness (L*, a*, b*) values of ground beef samples treated with the different additives and heated in a microwave oven (Dow, S-Korea, at 800 W) to 72° C. in the center. The instrument was standardized using white and black standard plates.

Series [3] concerns naturally occurring bacteria. In words: Aerobic colony count in smoked beef shoulder pastrami. Particulars: pastrami stored at 4° C. for three months; amount equivalent to 150 ppm sodium nitrite; plates 30° C. 24 hr.
Experimental: Aerobic colony count of naturally occurring bacteria in smoked beef shoulder pastrami: 5 gr of the pastrami manufactured in a meat factory as described above were homogenized in a sterile grinder with 45 ml of sterile saline, then further diluted with saline. The diluents were plated on BHI agar plates and incubated at 30° C. for 24 hr then colonies were counted and CFU calculated.
Series [4] concerns naturally occurring bacteria. In words: Aerobic colony count in ground beef shoulder. Particulars: 2.5 mM preservative; for bacteria count (aerobic colony count): after 1 week of storage at 4° C.; for bacteria concentration (aerobic colony count): after 4 weeks at 4° C. The protocol:
10 gr of ground beef shoulder was mixed with 1 ml (25 mM) aqueous solution of the tested preservative (Sodium nitrite, S-nitroso-cysteine and S-nitroso-N-acetylcysteine) or DDW for control and 1 ml of NaCl solution (10% w/v). The final concentrations were 2.5 mM preservative (where Kg meat=L) and 1% (w/w) NaCl. The meat was divided to 1 gr portions and placed in open vacuum bags, then heated in a water bath at 75° C. for 15 min and sealed by […] C100 at a vacuum of 8 mbar. The bags were transferred to 4° C. for cooling and storage. After time periods of 1 hr, 1 week and 4 weeks elapsed, the bags were opened in a hood and 1 gr of meat was homogenized in a sterile grinder with 9 ml of sterile saline, then the homogenate was diluted further with saline and the diluents were plated on BHI agar plates. The plates were incubated at 30° C. for 24 hours then colonies were counted and CFU calculated.

For the compound `CC(=O)N[C@@H](CSN=O)C(=O)O` [S-nitroso-N-acetylcysteine], the “kinetics of N-nitroso-methylaniline formation (UV absorbance at 270 nm versus time)” value in series [1] was “significantly lesser”. Further, the “color stability (ΔE*) over time” value in series [2] was “remained stable”. The “aerobic colony count (concentration of bacteria)” value in series [3] is 7*10^3 CFU/ml. In series [4], the “bacteria count (aerobic colony count)” value is reported as ~2.0*10^2 cfu/ml and the “bacteria concentration (aerobic colony count)” value (“bacteria concentration” for short) is given as “lower bacteria concentration”.
For the compound `O=NO` [sodium nitrite], in series [2], the “color stability (ΔE*) over time” value is “decreased over time”. In addition, the “aerobic colony count (concentration of bacteria)” value in series [3] is listed as 8*10^3 CFU/ml. In addition, in series [4], the “bacteria count (aerobic colony count)” value is reported as 5.8*10^3 cfu/ml and the “bacteria concentration” value is on record as ~10^8.
Consider `N[C@@H](CSN=O)C(=O)O` [S-nitroso-cysteine, S-nitrosocysteine], for which the “kinetics of N-nitroso-methylaniline formation (UV absorbance at 270 nm versus time)” value in series [1] is “reacts rapidly with N-methylaniline to produce progressively increasing amounts of nitrosamine”. Besides, in series [4], the “bacteria count (aerobic colony count)” value is recorded as ~2.0*10^2 cfu/ml and the “bacteria concentration” value is on record as “lower bacteria concentration”.
